Km and kcat data for one compound are collected here from patent US5492821A, “Stabilized polyacrylic saccharide protein conjugates” (Cargill, Inc., priority 1991, dated 1996).

What all share (type): biochemical
Holding throughout (details): 0.05M sodium phosphate buffer at pH 8 containing 10% methanol

One assay concerns trypsin (native). Put plainly: Km and kcat of enzyme, Table 1. The protocol: (§1) The yield of the active enzyme was determined by comparison of the relative activity of the native trypsin and the trypsin-polymer conjugate for N-succinyl-Ala-Ala-Pro-Phe p-nitroanilide as the substrate in 0.05M sodium phosphate buffer at pH 8 containing 10% methanol.
Assay [1] has as its system CPC-trypsin (poly(2-N-methacrylamido-2-deoxy-D-glucose)-trypsin conjugate). Put plainly: Km and kcat of enzyme-polymer conjugate, Table 1. The protocol:
A protein polymer conjugate of poly(2-N-methacrylamido-2-deoxy-D-glucose) and trypsin was prepared by the reductive amination procedure as shown below: [drawing 23] To 20 mL of a 0.05M sodium borate solution at pH 8 was added 148 mg (3×10^-8 mole) of poly(2-N-methacrylamido-2-deoxy-D-glucose) with 30 mg (1.2×10^-6 mole) of trypsin and 10 mg ([…]) of purified sodium cyanoborohydride. The solution was placed in a shaking water bath at 60 oscillations/min at 35° C. for 48 hours. The progress of the reaction was followed by gel filtration chromatography using 0.05M sodium borate as the eluent on Sephacryl S-200 with a flow rate of 1.5 mL/min. Dialysis of the solution using Spectra Por CE 100K MWCO membrane against 2×250 mL of 0.05M sodium borate at pH 8 for 14 hours gave a 42% yield of active stabilized trypsin-polymer conjugate.
as §1

Another assay concerns the target α-chymotrypsin (native) (Bos taurus, UniProt P00766). Put plainly: Km and kcat of enzyme, Table 1. The protocol:
as §1
The procedure of EXAMPLE 8 (a) (i) was repeated in every essential detail except that α-chymotrypsin was used instead of trypsin.

Molecules are shown by their SMILES. Numbered stars: 1 amine (or outer) side, 2 acyl side, 3 side chain; on linkers, the order of the positions; unused ones are H or OH. Peptide text beside a SMILES is read from it. * marks the point of attachment. pNA = O=[N+]([O-])c1ccc(N*)cc1; Suc = O=C(CCC(=O)[*:2])[*:1]

Turning to `C[C@H](NC(=O)CCC(=O)O)C(=O)N[C@@H](C)C(=O)N1CCC[C@H]1C(=O)N[C@@H](Cc1ccccc1)C(=O)Nc1ccc([N+](=O)[O-])cc1` [N-succinyl-Ala-Ala-Pro-Phe p-nitroanilide] (Suc-AAPF-pNA), the Km in the assay on trypsin (native) turned out to be 760 µM; in assay [1], 890 µM; on α-chymotrypsin (native) it was 40 µM. Moreover, the results for the kcat (in the assay with trypsin (native); in assay [1]; on α-chymotrypsin (native)) were 0.9 s⁻¹, 1.2 s⁻¹ and 33 s⁻¹, respectively.
